Measurements as given in patent US10485256B2, “Stevia sweetener with improved solubility with a cyclodextrin” (EPC Natural Products Co., Ltd., priority 2014, dated 2019).

Tests used:
[1] = Dissolution property at room temperature; format: physicochemical; conditions: concentration 1%; without a solublizer (no cyclodextrin); water
[2] = Stability test: period that the system remains in solution form, without precipitation; format: physicochemical; conditions: 25° C.; for stability (period the system remain a solution form, without precipitation): Concentration 1 weight %
Description: Concentration of RA was weight (g) in 100 g of water.
The stability test was performed at ambient temperature (25° C.), and was in water.
The acidic aqueous conditions were formulated with citric acid and water, and the pH was 3.0.
Concentration of RA+RD was weight (g) in 100 g of water.
The stability test was performed at ambient temperature (25° C.) and was in water.
Concentration of RA+RB+RD was weight (g) in 100 g of water.
Concentration of RB or RD was weight (g) in 100 g of water.

[3] = γ-cyclodextrin mole ratio 1, water

formation of a solution [1]	stability (period the system remain a solution form, without precipitation) [2, 3] [h]	stability (period the system remains in solution form, without precipitation) ([2]; acidic (citric acid, pH 3.0), RA 3.5 weight %, γ-cyclodextrin mole ratio 1) [h]	stability (period the system remains in solution form, without precipitation) ([2]; neutral, RA 3 weight %, γ-cyclodextrin mole ratio 0.5, water) [h]	stability (period the system remains in solution form, without precipitation) ([2]; neutral, RA 3 weight %, γ-cyclodextrin mole ratio 0.6, water) [h]	stability (period the system remains in solution form, without precipitation) ([2]; neutral, RA 3 weight %, γ-cyclodextrin mole ratio 0.7, water) [h]	stability (period the system remains in solution form, without precipitation) ([2]; neutral, RA 3 weight %, γ-cyclodextrin mole ratio 0.8, water) [h]	stability (period the system remains in solution form, without precipitation) ([2]; neutral, RA 3 weight %, γ-cyclodextrin mole ratio 0.85, water) [h]	stability (period the system remains in solution form, without precipitation) ([2]; neutral, RA 3.5 weight %, γ-cyclodextrin mole ratio 0, water) [h]	stability (period the system remains in solution form, without precipitation) ([2]; neutral, RA 3.5 weight %, γ-cyclodextrin mole ratio 0.85, water) [h]	stability (period the system remains in solution form, without precipitation) ([2]; neutral, RA 3.5 weight %, γ-cyclodextrin mole ratio 1, water) [h]	Molecule
did not form a solution	48										C=C1C[C@@]23CC[C@H]4[C@@](C)(CCC[C@@]4(C)C(=O)O[C@@H]4O[C@H](CO)[C@@H](O)[C@H](O)[C@H]4O[C@@H]4O[C@H](CO)[C@@H](O)[C@H](O)[C@H]4O)[C@@H]2CC[C@]1(O[C@@H]1O[C@H](CO)[C@@H](O)[C@H](O[C@@H]2O[C@H](CO)[C@@H](O)[C@H](O)[C@H]2O)[C@H]1O[C@@H]1O[C@H](CO)[C@@H](O)[C@H](O)[C@H]1O)C3 [RD, Rebaudioside D]
did not form a solution	0.333										Rebaudioside B [RB]
		120	1	2	24	52	92	2	160	336	C=C1C[C@@]23CC[C@H]4[C@@](C)(CCC[C@@]4(C)C(=O)O[C@@H]4O[C@H](CO)[C@@H](O)[C@H](O)[C@H]4O)[C@@H]2CC[C@]1(O[C@@H]1O[C@H](CO)[C@@H](O)[C@H](O[C@@H]2O[C@H](CO)[C@@H](O)[C@H](O)[C@H]2O)[C@H]1O[C@@H]1O[C@H](CO)[C@@H](O)[C@H](O)[C@H]1O)C3 [RA, Rebaudioside A]
